Earlier results, collected in patent EP1232240B1, “DETERGENT COMPOSITIONS” (UNILEVER N.V., priority 1999, dated 2001).

Conditions: grams of solid to form a saturated solution in 100 grams of water at 20°C

NC(N)=O [Urea]
Water Solubility (g/100g): >100 g/100g
